Patent publication US20060110790A1, “Expression system for large functional proteins” (priority 2002, published 2006)

Target: T1, individually expressed N half of ABCR containing 1D4 epitope tag (N*) (Homo sapiens, UniProt P78363)
T1 construct: The cDNAs coding for the N-half (amino acids 1-1325) and C-half (amino acids 1326-2273) of ABCR; made in house; host or cells: COS-1 cells
T1 sequence (P78363 1-1325): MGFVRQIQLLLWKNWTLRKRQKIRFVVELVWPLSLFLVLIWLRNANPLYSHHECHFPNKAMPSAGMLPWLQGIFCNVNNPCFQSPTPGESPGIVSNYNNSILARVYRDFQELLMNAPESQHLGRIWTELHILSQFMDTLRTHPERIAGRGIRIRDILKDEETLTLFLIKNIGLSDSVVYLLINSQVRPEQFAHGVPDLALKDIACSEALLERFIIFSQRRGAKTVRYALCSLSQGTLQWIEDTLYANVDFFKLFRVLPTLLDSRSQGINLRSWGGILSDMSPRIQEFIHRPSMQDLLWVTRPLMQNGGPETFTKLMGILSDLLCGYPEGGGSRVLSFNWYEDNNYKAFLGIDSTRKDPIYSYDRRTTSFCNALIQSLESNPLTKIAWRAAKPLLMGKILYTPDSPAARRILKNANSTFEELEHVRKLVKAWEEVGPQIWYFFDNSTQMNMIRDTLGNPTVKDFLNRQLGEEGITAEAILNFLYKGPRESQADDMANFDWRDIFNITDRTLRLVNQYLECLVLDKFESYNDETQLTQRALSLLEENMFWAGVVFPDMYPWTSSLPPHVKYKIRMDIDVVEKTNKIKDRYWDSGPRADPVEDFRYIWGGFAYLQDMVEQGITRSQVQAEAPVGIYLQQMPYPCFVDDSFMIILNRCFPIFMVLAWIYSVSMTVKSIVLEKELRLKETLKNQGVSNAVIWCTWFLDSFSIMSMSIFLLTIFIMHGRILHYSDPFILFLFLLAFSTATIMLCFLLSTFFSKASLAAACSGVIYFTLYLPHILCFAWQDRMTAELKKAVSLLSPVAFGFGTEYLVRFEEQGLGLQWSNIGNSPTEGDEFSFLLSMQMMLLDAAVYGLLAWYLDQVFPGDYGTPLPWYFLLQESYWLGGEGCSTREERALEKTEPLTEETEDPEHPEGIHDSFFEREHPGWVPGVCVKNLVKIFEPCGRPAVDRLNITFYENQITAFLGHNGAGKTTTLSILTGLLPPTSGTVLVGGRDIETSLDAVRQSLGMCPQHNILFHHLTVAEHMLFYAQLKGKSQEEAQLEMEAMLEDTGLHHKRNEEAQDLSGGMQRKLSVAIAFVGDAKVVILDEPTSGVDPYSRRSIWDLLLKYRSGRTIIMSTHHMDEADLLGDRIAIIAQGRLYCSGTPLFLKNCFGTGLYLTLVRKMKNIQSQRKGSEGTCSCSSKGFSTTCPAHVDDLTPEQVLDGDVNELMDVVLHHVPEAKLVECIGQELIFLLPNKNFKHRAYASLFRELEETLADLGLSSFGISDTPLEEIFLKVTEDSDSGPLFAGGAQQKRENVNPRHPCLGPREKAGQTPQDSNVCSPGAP
Assay: Retinal-stimulated ATPase activity of purified protein reconstituted in lipid vesicles
Type: biochemical
Details: individually expressed in COS-1 cells, 1D4-tagged, 50 μM [α32P]ATP
Method: Membranes (from two 10 cm dishes) were solubilized in 0.5 ml of 1% Triton-X100 in Buffer A (140 mM NaCl, 20 mM Tris-HCl, pH 7.4) for 20 min on ice. For ATPase assays, the membrane preparation step was omitted and the cell suspension was solubilized directly in Buffer B (10 mg/ml soybean phospholipids, 10% glycerol, 1 mM dithiothreitol, 100 mM NaCl, 3 mM MgCl2, 50 mM NaHEPES, pH 7.4) containing 18 mM CHAPS. The supernatant after a 10 min centrifugation at 40,000 rpm (TLA100.4 rotor) was mixed with 50 μl Rim3F4 Sepharose 2B for 1 h at 4° C. The beads were washed 6 times in Buffer A containing 0.2% Triton X-100 or Buffer B containing 10 mM CHAPS and eluted with 4% SDS (for electrophoresis) or 0.2 mg/ml Rim3F4 peptide (for reconstitution and determination of ATPase activity). Purified protein (24 μl) was incubated with 6 μl of 50 mg/ml lipid (1:1 mixture of dioleoylphosphatidylethanolamine and brain polar lipid, by weight) and 3 μl n-octylglucoside for 30 min on ice. The mixture was diluted rapidly with 200 μl of Buffer C (1 mM dithiothreitol, 140 mM NaCl, 25 mM NaHEPES, pH 7.4) and passed through a 200 μl Extracti-gel column (Pierce). The flow-through containing the reconstituted protein was used for determination of ATPase activity.
ATPase activity was measured as described previously (Ahn, J., Wong, J. T., and Molday, R. S. (2000) J Biol Chem 275(27), 20399-405) using 50 μM [α^32P]ATP and thin layer chromatography. The all-trans retinal concentration was determined spectrophotometrically (λ383 nm=42.88 mM^−1 cm^−1). Protein concentration was estimated from the eluate before reconstitution by laser densitometry of Coomassie blue stained gels using bovine serum albumin as a standard. […] Direct protein measurements after reconstitution by densitometry of Western blots was about half of that in the eluate. […]
ATPase Activity of Expressed N and C Halves—The basal and retinal activated ATPase activity of full-length ABCR and the N and C halves individually or co-expressed in COS-1 cells was determined after immunoaffinity purification and reconstitution into lipid vesicles. […]

Q: Which “stimulation of ATPase activity” value does the source give for `CC1=C(/C=C/C(C)=C/C=C/C(C)=C/C=O)C(C)(C)CCC1` [all-trans retinal] here?
A: not stimulated
